Test results from patent publication US8067542B1 (priority 2003, dated 2011).
Where two headings read alike, the source gives them in different places.

Legend:
Fusarium graminearum [1] = format: cell-based
Verticillium dahliae [2] = format: cell-based
Fusarium graminearum [3] = details: cited from earlier work
Verticillium dahliae [4] = details: plants expressing AlfAFP; cited from earlier work
[5] = High Ionic Strength Media (50 mM K+, 1 mM Ca2+)

| Substance | minimun concentration of protein required to inhibit fungal growth (Fusarium graminearum [1]; [5]) | minimun concentration of protein required to inhibit fungal growth (Fusarium graminearum [1]; Standard Media) [ppm] | minimum concentration of protein required to inhibit fungal growth (Verticillium dahliae [2]; [5]) [ppm] | minimum concentration of protein required to inhibit fungal growth (Verticillium dahliae [2]; Standard Media) [ppm] | protection of plants infected with Fusarium head blight (Fusarium graminearum [3]) | agronomic effect on potato tuber size (Verticillium dahliae [4]) |
| --- | --- | --- | --- | --- | --- | --- |
| Alf3: AlfAFP variant: AsnTyr inserted between C33 and R34 (RTCENLADKYRGPCFSGCDTHCTTKENAVSGRCNYRDDFRCWCTKRC; listed as Medicago sativa) | >>>20 ppm | 20 | – | – | – | – |
| Alf - wt: native alfalfa antifungal protein (plant defensin from Medicago sativa seeds), SEQ ID NO:2 (RTCENLADKYRGPCFSGCDTHCTTKENAVSGRCRDDFRCWCTKRC; listed as Medicago sativa) | 15-20 ppm | 10 | 15 | 5 | unable to provide an adequate level of protection | reduction in potato tuber size |
